# Results as given in patent US6921840B1 (The Trustees of the University of Pennsylvania, priority 1999, dated 2005).
# Read-outs that look alike come from different tables or passages of the source.
# Key:
# SERT [1] = target: T1, SERT (Rattus norvegicus, UniProt P31652); parameters: The frontal cortex of rat brain were dissected and homogenized in 30 volumes of buffer; from tissue; host or cells: rat frontal cortex membrane homogenates (male Sprague-Dawley rats, control and PCA-lesioned); conditions: Kung et al. 1992, cited from earlier work
# [2] = target: T2, serotonin transporter (SERT) expressed in LLC-PK1 cells (Rattus norvegicus, UniProt P31652); assay: [125I]IPT competition binding, LLC-SERT membrane homogenates
# T2 construct: host or cells: LLC-PK1 (LLC-SERT)
# Excerpt: (§1) Three monoamine transporters expressed respectively in a common parental cell line, LLC-PK, (referred to as LLC-DAT. LLC-NET and LLC-SERT) were kindly provided by Dr. G. Rudnick of Yale University.
# [3] = target: T3, dopamine transporter (DAT) expressed in LLC-PK1 cells (Rattus norvegicus, UniProt P23977); assay: [125I]IPT competition binding, LLC-DAT membrane homogenates; conditions: [125I]IPT ligand, LLC-PK1 membranes; read-out: Inhibition constant (Ki) DAT
# T3 construct: host or cells: LLC-PK1 (LLC-DAT)
# Excerpt: as §1
# SERT [4] = target: T1, SERT; assay: In vivo competitive binding: drug pretreatment before [125I]IDAM; conditions: 2 mg/kg i.v. 5 min prior to tracer; 60 min after tracer
# Procedure: Experiments were performed using groups of 3-4 animals per study. […] The reduction of regional specific binding in the drug-pretreated rats was compared to the control animals with saline pretreatment.
# SERT [5] = target: T1, SERT; assay: Competition binding with [125I]IDAM in rat frontal cortical homogenate; parameters: The frontal cortex of rat brain were dissected and homogenized in 30 volumes of buffer; from tissue; host or cells: rat frontal cortex membrane homogenates (male Sprague-Dawley rats, control and PCA-lesioned)
# Procedure: The homogenates were centrifuged at 20,000 g for 20 min. The resulting pellets were then re-suspended and recentrifuged. The final pellets were suspended in the same buffer and used for in vitro binding assays.
# Various inhibitors were serially diluted with the buffer containing 0.1% BSA to overcome the stickiness and loss due to dilution. […] Incubation was carried out for 60 min at room temperature and then terminated by separation of bound from free radioligand by filtration through glass fiber filters (Schleicher & Schuell No. 25, Keene, N.H.) presoaked with 1% polyethylenimine. The filters were then washed three times with 3 ml of ice-cold […] Tris buffer and counted in a gamma counter (Packard 5000) with 70% efficiency. To study the effect of […], the homogenates were prepared in a sodium-free 50 mM Tris-HCl/5 mM KCl buffer.
# [6] = Partition coefficient octanol/buffer; type: physicochemical; conditions: 1-octanol/pH 7 buffer
# [7] = Biodistribution in rats after i.v. injection of radioactive tracer; type: in vivo, rat
# Procedure: Three or four rats per group were used for each biodistribution study. While under ether anesthesia, 0.2 ml of a saline solution containing 10 μCi of radioactive tracer was injected into the femoral vein. The rats were sacrificed at the time indicated by cardiac excision while under ether anesthesia. Organs of interest were removed and weighed, and the radioactivity was counted using a Packard automatic gamma counter (Model 5000). The percent dose per organ was calculated by a comparison of the tissue counts to counts of 1% of the initial dose (100 times diluted aliquots of the injected material) measured at the same time.
# Regional brain distribution in rats was measured after an i.v. injection of the radioactive tracer. Samples from different brain regions [cortex (CX), striatum (ST), hippocampus (HP), cerebellum (CB) and hypothalamus (HY)] were dissected, weighed and counted. The percentage dose/g of each sample was calculated by comparing sample counts with the counts of the diluted initial dose described above. The ratio of specific binding (SB) in each region was obtained by dividing the difference of each region from the cerebellum (percentage dose/g) with that of the cerebellum [(region-CB)/CB].
# [8] = 0.2 nM [125I]IDAM, rat frontal cortical homogenate, read-out: Ki for inhibition of [125I]IDAM binding
# T1 sequence (P31652 whole entry): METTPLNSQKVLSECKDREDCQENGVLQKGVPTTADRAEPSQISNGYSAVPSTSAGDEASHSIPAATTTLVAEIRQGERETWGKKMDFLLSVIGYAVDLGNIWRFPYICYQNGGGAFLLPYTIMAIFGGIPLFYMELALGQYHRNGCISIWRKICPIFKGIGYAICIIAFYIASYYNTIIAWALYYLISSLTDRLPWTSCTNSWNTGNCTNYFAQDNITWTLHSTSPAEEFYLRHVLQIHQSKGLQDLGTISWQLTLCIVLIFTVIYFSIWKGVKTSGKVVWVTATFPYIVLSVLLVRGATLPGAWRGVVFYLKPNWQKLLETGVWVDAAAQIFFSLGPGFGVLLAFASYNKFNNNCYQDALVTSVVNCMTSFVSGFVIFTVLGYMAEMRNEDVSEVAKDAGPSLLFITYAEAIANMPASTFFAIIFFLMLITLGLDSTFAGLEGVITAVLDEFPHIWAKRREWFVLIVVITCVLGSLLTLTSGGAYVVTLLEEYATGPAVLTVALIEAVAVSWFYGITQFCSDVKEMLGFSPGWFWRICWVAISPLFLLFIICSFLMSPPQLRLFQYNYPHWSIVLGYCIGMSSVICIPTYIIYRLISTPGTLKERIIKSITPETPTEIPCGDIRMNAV
# T2 sequence (P31652 whole entry): as above
# T3 sequence (P23977 whole entry): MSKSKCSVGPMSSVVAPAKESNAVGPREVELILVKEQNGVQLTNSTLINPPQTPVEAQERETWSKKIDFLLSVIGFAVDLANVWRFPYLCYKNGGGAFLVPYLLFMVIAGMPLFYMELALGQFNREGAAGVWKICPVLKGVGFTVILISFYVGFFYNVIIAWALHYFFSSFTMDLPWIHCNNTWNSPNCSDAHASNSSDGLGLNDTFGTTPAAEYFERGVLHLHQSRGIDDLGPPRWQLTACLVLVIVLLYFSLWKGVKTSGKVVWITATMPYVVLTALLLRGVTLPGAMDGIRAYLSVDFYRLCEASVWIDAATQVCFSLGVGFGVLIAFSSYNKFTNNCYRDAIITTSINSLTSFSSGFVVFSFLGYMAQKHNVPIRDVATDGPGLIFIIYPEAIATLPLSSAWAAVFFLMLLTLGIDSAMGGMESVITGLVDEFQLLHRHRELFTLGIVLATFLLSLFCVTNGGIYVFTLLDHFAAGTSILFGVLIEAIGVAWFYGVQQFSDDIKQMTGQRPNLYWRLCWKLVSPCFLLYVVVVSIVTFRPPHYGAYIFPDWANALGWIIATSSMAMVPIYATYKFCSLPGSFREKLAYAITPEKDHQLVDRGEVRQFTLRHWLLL
smiles,measurement,setting,value
CNCCC(Oc1ccc(I)cc1C)c1ccccc1 (centres unmarked) [4-I-tomoxetine],Kd,SERT [1],0.04 nM
same,nonspecific binding,SERT [1]; at Kd value,> 25%
"CN(C)Cc1ccccc1Sc1ccc(I)cc1CO [IDAM, 5-iodo-2-[[2-2[(dimethylamino)methyl]phenyl]thio]benzyl alcohol]",Ki,[2],< 0.1 nM
same,selectivity for SERT,[2]; SERT versus DAT and NET,"more than 1,000 fold"
same,Ki,[3],> 10000 nM
same,effect of pretreatment on specific binding of [125I]IDAM in rat brain regions,SERT [4],dramatically reduced
same,Ki,SERT [5],0.08 nM
same,partition coefficient,[6],473
"CN(C)Cc1ccccc1Oc1ccc(I)cc1CO [ODAM, 5-Iodo-2-(2-dimethylaminomethylphenoxy)-benzyl alcohol]",Ki,"[2]; [125I]IPT ligand, LLC-PK1 membranes, read-out: Inhibition constant (Ki) SERT",0.12 nM
same,Ki,[3],3900 ± 700 nM
same,% dose/organ BRAIN,[7]; 2 min,2.03 % dose/organ
same,Regional brain distribution (ratio/CB) HYPOTHALAMUS,[7]; 2 min,1.22
same,% dose/organ BRAIN,[7]; 30 min,1.49 % dose/organ
same,Regional brain distribution (ratio/CB) HYPOTHALAMUS,[7]; 30 min,1.86
same,% dose/organ BRAIN,[7]; 60 min,0.79 % dose/organ
same,Regional brain distribution (ratio/CB) HYPOTHALAMUS,[7]; 60 min,1.86
same,% dose/organ BRAIN,[7]; 120 min,0.27 % dose/organ
same,Regional brain distribution (ratio/CB) HYPOTHALAMUS,[7]; 120 min,1.63
same,% dose/organ BRAIN,[7]; 240 min,0.07 % dose/organ
same,Regional brain distribution (ratio/CB) HYPOTHALAMUS,[7]; 240 min,1.34
same,Ki,SERT [5]; [8],2.88 ± 0.88 nM
COC(=O)C(c1ccccc1)C1CCCCN1 (centres unmarked) [methylphenidate],effect of pretreatment on specific binding of [125I]IDAM in rat brain regions,SERT [4],no effect
same,Ki,SERT [5],> 1000 nM
same,Ki for inhibition of [125I]IDAM binding,"SERT [5]; 0.2 nM [125I]IDAM, rat frontal cortical homogenate",much less potent
"CCN1CCC[C@H]1CNC(=O)c1c(O)c(Cl)cc(Cl)c1OC [Raclopride, raclopride]",effect of pretreatment on specific binding of [125I]IDAM in rat brain regions,SERT [4],no effect
same,Ki,SERT [5]; [8],669 nM
